Tested on: Cucumber Green Mottle Mosaic Virus (CGMMV)
Assay: Symptom expression of CGMMV in cucumbers treated 7 days before mechanical inoculation
Assay type: in vivo
Settings: cucumber plants, 500 g product in 200 litres water sprayed to run-off 7 days before inoculation
Experimental: The experiment tested the effect of boscalid (as Filan®) on the symptom expression of CGMMV in cucumbers. Cucumber plants were treated with Filan or water 7 days before mechanical inoculation with CGMMV. Filan® was applied at 500 g in 200 litres water. Sprays were applied as a fine spray to run-off.
The experiment consisted of 5 plants per each treatment, with three replicates arranged randomly after fungicide treatment, but before inoculation. Plants were then inoculated in situ. Plants were mechanically inoculated at the 4-6 true leaf stage. Cucumber leaves showing symptoms and confirmed by CSL as infected with CGMMV were used as the source of inoculum. Several infected leaves were crushed in a plastic bag with a small amount of distilled water to extract the sap. This sap was then gently rubbed onto the second lowest green leaf of each plant in the experiment. Symptoms of CGMMV were assessed at intervals following inoculation.

O=C(Nc1ccccc1-c1ccc(Cl)cc1)c1cccnc1Cl [Boscalid, boscalid]
Number of leaves with symtoms, 8 days after inoculation (Average) (8 days after inoculation, untreated 2.4): 0.8
Number of leaves with symtoms, 33 days after inoculation (Average) (33 days after inoculation, untreated 7.4): 4.4

— patent US20100048403A1, “Method of inducing virus tolerance of plants” (BASF SE, priority 2007, published 2010)
